Data: patent publication US3980794A, “Method for promoting growth of poultry with 3-(5-nitro-2-imidazolyl)pyrazoles” (Eli Lilly and Company, priority 1975, dated 1976)
Converted amounts (≈) assume the structure as drawn. Like-named read-outs stand apart in the source and are kept apart here.

Experiments:
Salmonella typhimurium = test: Control of infections caused by Salmonella typhimurium in chickens, subcutaneous (Experiment 2); format: in vivo; details: Salmonella enterica, sc, 144 h, 6 days, read-out: Survival Ratio (converted); for responders at 15 mg/kg: 15 mg./kg. subcutaneous; for responders at 30 mg/kg: 30 mg./kg. subcutaneous; for responders at 60 mg/kg: 60 mg./kg. subcutaneous
Experimental: The efficacy of the novel compounds in the control of infections caused by Salmonella typhimurium in chickens was evaluated in the following manner.
The test was carried out using day-old chicks weighing approximately 35 g. each. The chicks were divided into groups of 5 chicks per each dosage level. A portion of the chicks received the test compound which was suspended in 0.2 ml. of polyethylene glycol 200 and administered subcutanusly in the neck. […] All the chicks were challenged with a 1:200 dilution of a culture of the organism, 0.1 ml. of the dilution being injected into each chick in the leg intramuscularly. […] The test compounds are identified in the same manner as set forth in Experiment 1.
In the chart, column 1 lists the compounds tested; column 2, the dosage of test compound in mg./kg.; and column 3, the survival ratio.

Actinomyces bovis 13684 = test: Susceptibility of anaerobic bacteria, agar dilution; format: cell-based; details: read-out: 24 Hr. Minimum Inhibitory Concentration
[1] = system: Clostridium innocuum 1373; test: as above; format: cell-based; details: read-out: 24 Hr. Minimum Inhibitory Concentration
[2] = system: Clostridium perfringens 81; test: microbe, parasite or virus in culture; format: cell-based; details: Clostridium perfringens, 81, 24 h, read-out: 24 Hr. Minimum Inhibitory Concentration
Clostridium ramosum 1313 = test: Susceptibility of anaerobic bacteria, agar dilution; format: cell-based; details: read-out: 24 Hr. Minimum Inhibitory Concentration
[3] = system: Clostridium septicum 1128; test: as above; format: cell-based; details: 24 h, read-out: 24 Hr. Minimum Inhibitory Concentration
Experimental: (§1) The susceptibility of anaerobic bacteria, both gram positive and gram negative, to a representative number of the novel compounds of this application was determined using the agar dilution method. The bacteria used were isolated from patients hospitalized at the Indiana University Medical Center. The isolates were identified in the anaerobe laboratory of the Medical Center by the criteria established by Dowell et al., Laboratory Methods in Anaerobic Bacteriology. Public Health Serv. Publ. No. 1803 (1968) [Center for Disease Control, Atlanta, Ga.]; and by Smith et al., The Pathogenic Anaerobic Bacteria, pages 96-136 (1968) [Charles C. Thomas, Publisher, Springfield, Ill.]. All the organisms were maintained in chopped meat glucose medium (Scott Labs) at room temperature.
(§2) The method used for the agar dilution tests was based on the studies of Sutter et al., Antimicrob. Ag. Chemother. 3, 188-193 (1973). The strains of anaerobic bacteria were grown in 16 × 120 mm. tubes for 16 to 18 hours in Thioglycolate medium without indicator--135C (Becton, Dickinson and Co.), to which was added 5 mcg. of hemin per milliliter prior to autoclaving, plus 1 mg. of sodium bicarbonate and 0.1 mcg. of filter-sterilized menadione per milliliter after autoclaving. The growth tubes for the bacteria Veillonella alcalescens were additionally supplemented with 5 mg. of sodium lactate per milliliter. The strains were adjusted to the turbidity of the No. 1 McFarland standard in Thioglycolate medium without indicator--135C containing an additional 0.13 percent Bacto-agar (Difco). Each strain was then applied to the surface of the petri plate (100 mm. × 15 mm.) by means of a replicator.
(§3) For the agar dilution studies, two-fold dilutions of the test compounds were prepared in deionized water to which was then added laked sheep blood and filter-sterilized menadione so the concentrations after the agar dilution were 5 percent and 10 mcg./ml. respectively. An equal volume of double strength Brucella agar (Becton, Dickinson and Co.) was mixed with each dilution in a water bath held at 50°C. and then poured onto the petri plates.
(§4) All of the procedures were done inside a plastic glove box, except for the incubation of the growth tubes and the pouring of the plates. After the plates hardened, they were put inside the glove box for a minimum of two hours before they were inoculated. Generally, the glove box procedures of Aranki et al., Applied Microbiology 17, 568-576 (1969), were followed, but the following modifications were used. Dry materials were introduced into the glove box by evacuating the lock to 28 inches of mercury and filling once with nitrogen gas, followed by evacuating in the same manner and filling with an 80 percent nitrogen plus 10 percent CO2 plus 10 percent hydrogen gas mixture. Liquid media and agar plates were introduced into the glove box by evacuating the lock to 10 inches of mercury and filling with gas four times. The nitrogen gas was used to fill the lock for the first two cycles of evacuation, with the gas mixture described above used for the final two fillings.
(§5) All the plates were incubated at 37°C. in Gas Pak jars (Becton, Dickinson and Co.) containing palladium-coated alumina catalysts (reactivated after each use). The results of the agar dilution tests were read after about 24 hours of incubation. The minimum inhibitory concentration (MIC) was recorded as the lowest concentration of test compound at which there was no growth.
(§6) The results of these in vitro tests are recorded in Charts 11 and 12 which follow. The test compounds are identified in the same manner as in the previous experiments. The antibiotics cephalothin and erythromycin were also run simultaneously with the novel compounds of this application, for comparison purposes, and the results are included in Charts 11 and 12 below.

[4] = system: Clostridium septicum bovine; test: as above; format: cell-based; details: 24 h, read-out: 24 Hr. Minimum Inhibitory Concentration
Experimental: as §1, §2, §3, §4, §5, §6

[5] = system: Eubacterium aerofaciens 1235; test: as above; format: cell-based; details: read-out: 24 Hr. Minimum Inhibitory Concentration
[6] = system: Peptococcus anaerobius 1428; test: as above; format: cell-based; details: 24 h, read-out: 24 Hr. Minimum Inhibitory Concentration
[7] = system: Peptostreptococcus intermedius 1264; test: as above; format: cell-based; details: read-out: 24 Hr. Minimum Inhibitory Concentration
[8] = system: Propionibacterium acnes 44; test: as above; format: cell-based; details: read-out: 24 Hr. Minimum Inhibitory Concentration
[9] = system: Propionibacterium acnes 79; test: as above; format: cell-based; details: read-out: 24 Hr. Minimum Inhibitory Concentration
[10] = system: Bacteroides fragilis sp. fragilis 1877; test: as above; format: cell-based; details: 24 h, read-out: 24 Hr. Minimum Inhibitory Concentration
[11] = system: Bacteroides fragilis sp. fragilis 1936B; test: as above; format: cell-based; details: 24 h, read-out: 24 Hr. Minimum Inhibitory Concentration
[12] = system: Bacteroides fragilis sp. thetaiotaomicron 1438; test: as above; format: cell-based; details: 24 h, read-out: 24 Hr. Minimum Inhibitory Concentration
[13] = system: Bacteroides fragilis sp. vulgatus 1563; test: as above; format: cell-based; details: 24 h, read-out: 24 Hr. Minimum Inhibitory Concentration
[14] = system: Bacteroides fragilis sp. vulgatus 1211; test: as above; format: cell-based; details: 24 h, read-out: 24 Hr. Minimum Inhibitory Concentration
[15] = system: Fusobacterium symbiosum 1470; test: as above; format: cell-based; details: read-out: 24 Hr. Minimum Inhibitory Concentration
[16] = system: Fusobacterium necrophorum 13859; test: as above; format: cell-based; details: read-out: 24 Hr. Minimum Inhibitory Concentration
[17] = system: Veillonella alcalescens 1; test: as above; format: cell-based; details: read-out: 24 Hr. Minimum Inhibitory Concentration
[18] = Thomasclavelia ramosa, 24 h, Clostridium ramosum 1313
[19] = 24 h, Peptostreptococcus intermedius 1264
[20] = Cutibacterium acnes, 24 h, Propionibacterium acnes 44
[21] = Veillonella parvula, 24 h, Veillonella alcalescens 1
[22] = [Clostridium] innocuum, 1373, 24 h
[23] = Thomasclavelia ramosa, 1313, 24 h
[24] = Collinsella aerofaciens, 1235, 24 h
[25] = Fusobacterium necrophorum, 13859, 24 h

SMILES	responders at 15 mg/kg (Salmonella typhimurium)	MIC [2]	MIC [3]	MIC [4]	MIC [7, 19]	MIC [8, 20]	MIC (Actinomyces bovis 13684; Actinomyces bovis, 13684, 24 h)	MIC [1, 22]	MIC (Clostridium ramosum 1313; [23])	MIC [5, 24]	MIC [6]	MIC ([9]; Cutibacterium acnes, 79, 24 h)	MIC ([10]; Bacteroides fragilis)	MIC ([11]; Bacteroides fragilis)	MIC ([12]; Bacteroides fragilis)	MIC ([13]; Bacteroides fragilis)	MIC ([14]; Bacteroides fragilis)	MIC ([15]; Fusobacterium, 1470, 24 h)	MIC [16, 25]	MIC ([17]; Veillonella parvula, 1, 24 h)	further results
CC(=O)Nc1c(C#N)c(-c2ncc([N+](=O)[O-])n2C)nn1C [Compound 8, N-[4-cyano-1-methyl-3-(1-methyl-5-nitro-2-imidazolyl)pyrazol-5-yl]acetamide]	0%	1 µg/mL (≈ 3.46 µM)	0.25 µg/mL (≈ 0.864 µM)	1 µg/mL (≈ 3.46 µM)	4 µg/mL (≈ 13.8 µM)	> 8 µg/mL															responders at 30 mg/kg (Salmonella typhimurium): 20%; responders at 60 mg/kg (Salmonella typhimurium): 60%; MIC (Actinomyces bovis 13684; 24 h, Actinomyces bovis 13684): 4 µg/mL (≈ 13.8 µM); MIC ([1]; 24 h, Clostridium innocuum 1373): 1 µg/mL (≈ 3.46 µM); MIC (Clostridium ramosum 1313; [18]): 0.25 µg/mL (≈ 0.864 µM); MIC ([5]; Collinsella aerofaciens, 24 h, Eubacterium aerofaciens 1235): 0.125 µg/mL (≈ 0.432 µM); MIC ([6]; Peptococcus anaerobius 1428): 1 µg/mL (≈ 3.46 µM); MIC ([9]; Cutibacterium acnes, 24 h, Propionibacterium acnes 79): 0.03 µg/mL (≈ 0.104 µM); MIC ([10]; Bacteroides fragilis sp. fragilis 1877): 0.25 µg/mL (≈ 0.864 µM); MIC ([11]; Bacteroides fragilis sp. fragilis 1936B): 0.25 µg/mL (≈ 0.864 µM); MIC ([12]; Bacteroides fragilis sp. thetaiotaomicron 1438): 0.5 µg/mL (≈ 1.73 µM); MIC ([13]; Bacteroides fragilis sp. vulgatus 1563): 0.25 µg/mL (≈ 0.864 µM); MIC ([14]; Bacteroides fragilis sp. vulgatus 1211): 0.25 µg/mL (≈ 0.864 µM); MIC ([15]; 24 h, Fusobacterium symbiosum 1470): 0.03 µg/mL (≈ 0.104 µM); MIC ([16]; 24 h, Fusobacterium necrophorum 13859): 0.06 µg/mL (≈ 0.207 µM); MIC [17, 21]: 0.03 µg/mL (≈ 0.104 µM)
Cn1c([N+](=O)[O-])cnc1-c1nn(CCO)c(N)c1C#N [Compound 14, 5-Amino-1-(2-hydroxyethyl)-3-(1-methyl-5-nitro-2-imidazolyl)pyrazole-4-carbonitrile]	6.67%	< 0.125 µg/mL	< 0.125 µg/mL	< 0.125 µg/mL	1 µg/mL (≈ 3.61 µM)	> 32 µg/mL	< 0.125 µg/mL	< 0.125 µg/mL	< 0.125 µg/mL	< 0.125 µg/mL	< 0.125 µg/mL	< 0.125 µg/mL	< 0.125 µg/mL	< 0.125 µg/mL	< 0.125 µg/mL	< 0.125 µg/mL	< 0.125 µg/mL	< 0.125 µg/mL	< 0.125 µg/mL	< 0.125 µg/mL	responders at 7.5 mg/kg (Salmonella typhimurium; 7.5 mg./kg. subcutaneous): 20%; responders at 30 mg/kg (Salmonella typhimurium): 40%; responders at 60 mg/kg (Salmonella typhimurium): 93.3%
CNNC=Nc1c(C#N)c(-c2ncc([N+](=O)[O-])n2C)nn1C [Compound 21, N-[4-Cyano-1-methyl-3-(1-methyl-5-nitroimidazol-2-yl)pyrazol-5-yl]formimidic acid, 2-methyl hydrazide]		< 0.125 µg/mL	< 0.125 µg/mL	< 0.125 µg/mL	0.5 µg/mL (≈ 1.65 µM)	32 µg/mL (≈ 106 µM)	< 0.125 µg/mL	< 0.125 µg/mL	< 0.125 µg/mL	< 0.125 µg/mL	< 0.125 µg/mL	< 0.125 µg/mL	< 0.125 µg/mL	< 0.125 µg/mL	< 0.125 µg/mL	< 0.125 µg/mL	< 0.125 µg/mL	< 0.125 µg/mL	< 0.125 µg/mL	< 0.125 µg/mL	
CCCn1nc(-c2ncc([N+](=O)[O-])n2C)c(C#N)c1N [Compound 22, 5-Amino-1-(n-propyl)-3-(1-methyl-5-nitro-2-imidazolyl)pyrazole-4-carbonitrile]		< 0.125 µg/mL	< 0.125 µg/mL	< 0.125 µg/mL	1 µg/mL (≈ 3.63 µM)	> 32 µg/mL	< 0.125 µg/mL	< 0.125 µg/mL	< 0.125 µg/mL	< 0.125 µg/mL	< 0.125 µg/mL	< 0.125 µg/mL	< 0.125 µg/mL	< 0.125 µg/mL	< 0.125 µg/mL	< 0.125 µg/mL	< 0.125 µg/mL	< 0.125 µg/mL	< 0.125 µg/mL	< 0.125 µg/mL	
CC[C@H]1OC(=O)[C@H](C)[C@@H](O[C@H]2C[C@@](C)(OC)[C@@H](O)[C@H](C)O2)[C@H](C)[C@@H](O[C@@H]2O[C@H](C)C[C@H](N(C)C)[C@H]2O)[C@](C)(O)C[C@@H](C)C(=O)[C@H](C)[C@@H](O)[C@]1(C)O [Erythromycin, erythromycin, reference compound]		< 0.5 µg/mL	1 µg/mL (≈ 1.36 µM)	< 0.5 µg/mL			1 µg/mL (≈ 1.36 µM)	> 128 µg/mL		1 µg/mL (≈ 1.36 µM)	1 µg/mL (≈ 1.36 µM)	< 0.5 µg/mL	4 µg/mL (≈ 5.45 µM)	4 µg/mL (≈ 5.45 µM)	4 µg/mL (≈ 5.45 µM)	2 µg/mL (≈ 2.73 µM)	2 µg/mL (≈ 2.73 µM)	< 0.5 µg/mL	2 µg/mL (≈ 2.73 µM)		MIC (Clostridium ramosum 1313; [18]): > 128 µg/mL; MIC ([7]; Peptostreptococcus, 1264, 24 h): 8 µg/mL (≈ 10.9 µM); MIC ([8]; Cutibacterium acnes, 44, 24 h): < 0.5 µg/mL; MIC [17, 21]: 1 µg/mL (≈ 1.36 µM)
